Measured values: PubChem BioAssay (NCI)
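Grown in 96-well plates, cells were treated for 48 hours with each compound at five concentrations. Insufficient inhibition: endpoint recorded as highest concentration tested. At the TGI there is no net growth.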

tested on: OVCAR-4 ovarian; assay: NCI-60 cell line screen, 48 h

SMILES	TGI
CCCCCCCCCCCCCCCCP(=O)(O)OCC(N)C(=O)O (stereo unspecified)	> 100 µM
OC1=C2c3ccccc3NC2Oc2cc(F)ccc21 (stereo unspecified)	50.6 µM
NCC(Cl)C(O)c1cnc(N)[nH]1 (stereo unspecified)	10.2 µM

tested on: HCT-15 colon; assay: NCI-60 cell line screen, 48 h

SMILES	TGI
CCOc1cccc(C=Nc2ccccc2SSc2ccccc2N=Cc2cccc(OCC)c2O)c1O	12.9 µM
Cc1c2c(cc3c1C(=O)C(=O)C([C@@H](C)CO)=C3O)C(C)(C)CCC2	> 100 µM
CC[C@@]1(O)C(=O)OCc2c1cc1n(c2=O)Cc2c-1nc1ccccc1c2/C=N\NC(=O)C[n+]1ccccc1	> 100 µM
Cc1[nH]c(=O)[nH]c(=O)c1/C=C/C(=O)NC(CO)CC(C)C (stereo unspecified)	> 375 µM
COc1ccc(CC2Cc3ccccc3CCN2)cc1OC (stereo unspecified)	> 50 µM
CN(C)CCn1c(=O)c2ccc(NCCNCCO)c3c(=O)c4ccccc4n(c1=O)c23	6.9 µM
CN(CCC(=O)N1CC(CCl)c2ccc([N+](=O)[O-])cc21)CCC(=O)N1CC(CCl)c2ccc([N+](=O)[O-])cc21 (stereo unspecified)	25.9 µM
O=C1Cc2c([nH]c3ccc(Br)cc23)-c2cc(Br)ccc2N1	> 100 µM
O=C1CC(Br)c2c(Br)sc(Br)c21 (stereo unspecified)	34.6 µM
[O-][n+]1nc(N2CCOCC2)nc2ccccc21	> 100 µM
COc1ccc(NC(=S)Nc2cc(C)ccn2)cc1	> 100 µM
N=C1C(=N)c2ccccc2-c2ccccc21.[Cl-].[Ru+2].c1cnc2c(c1)ccc1cccnc12.c1cnc2c(c1)ccc1cccnc12	> 100 µM
NCc1ccc(-c2ccc(CN)s2)s1	> 100 µM
Cc1cccc(N/C(=C(/C(Cl)=C(Cl)Cl)[N+](=O)[O-])n2nnc3ccccc32)c1	42.3 µM
CCC1CN2CCc3cc(OC)c(OC)cc3C2CC1CC1c2cc(OC)c(OC)cc2CCN1C(=O)C(N)Cc1ccccc1 (stereo unspecified)	10.9 µM
CC(=O)OC1C=C(C=O)C(O)(C=O)C2(C)CCCC(C)(C)C12 (stereo unspecified)	1.7 µM
C1C2CC3CC1CC(c1nn4c(C56CC7CC(CC(C7)C5)C6)nnc4s1)(C2)C3	> 100 µM
Cc1cn(C2OC(CO[Si](C)(C)C(C)(C)C)/C(=C\C#N)C2O[Si](C)(C)C(C)(C)C)c(=O)[nH]c1=O (stereo unspecified)	> 100 µM
COc1cc2c(/C=C3/C(=O)Nc4ccc(O)cc43)c(Cl)n(Cc3ccccc3)c2cc1C	> 22.6 µM
O=[N+]([O-])/C(C(Cl)=C(Cl)Cl)=C1\Nc2ccc([N+](=O)[O-])cc2N1	> 100 µM
CC(C)=CCc1c(O)cc(O)c2c1OC(c1ccc(O)cc1)C(O)C2=O (stereo unspecified)	55.7 µM
Cc1ccc(-c2c(C#N)c(-c3ccccc3)n(NS(=O)(=O)c3ccc(C)cc3)c(=O)c2C#N)cc1	> 100 µM
CC(C)CCCC(C)[C@H]1CC[C@H]2n3c(nnc3-c3ccccc3)CCC[C@]12C (stereo partly specified)	68.9 µM
CCCCCCCCCCCCCCCCP(=O)(O)OCC(N)C(=O)O (stereo unspecified)	> 100 µM
C1=C(CC2=C[P+](c3ccccc3)(c3ccccc3)C=C(c3ccccc3)O2)OC(c2ccccc2)=C[P+]1(c1ccccc1)c1ccccc1	3.22 µM
OC1=C2c3ccccc3NC2Oc2cc(F)ccc21 (stereo unspecified)	37.3 µM
NCC(Cl)C(O)c1cnc(N)[nH]1 (stereo unspecified)	> 63.2 µM

tested on: SR leukemia; assay: NCI-60 cell line screen, 48 h

SMILES	TGI
CCOc1cccc(C=Nc2ccccc2SSc2ccccc2N=Cc2cccc(OCC)c2O)c1O	28.2 µM
Cc1c2c(cc3c1C(=O)C(=O)C([C@@H](C)CO)=C3O)C(C)(C)CCC2	56.7 µM
COc1ccc(NC(=S)Nc2cc(C)ccn2)cc1	> 100 µM
N=C1C(=N)c2ccccc2-c2ccccc21.[Cl-].[Ru+2].c1cnc2c(c1)ccc1cccnc12.c1cnc2c(c1)ccc1cccnc12	> 100 µM
CCC1CN2CCc3cc(OC)c(OC)cc3C2CC1CC1c2cc(OC)c(OC)cc2CCN1C(=O)C(N)Cc1ccccc1 (stereo unspecified)	11.4 µM
C1C2CC3CC1CC(c1nn4c(C56CC7CC(CC(C7)C5)C6)nnc4s1)(C2)C3	> 100 µM
Cc1cn(C2OC(CO[Si](C)(C)C(C)(C)C)/C(=C\C#N)C2O[Si](C)(C)C(C)(C)C)c(=O)[nH]c1=O (stereo unspecified)	> 100 µM
COc1cc2c(/C=C3/C(=O)Nc4ccc(O)cc43)c(Cl)n(Cc3ccccc3)c2cc1C	3.35 µM
CC(C)CCCC(C)[C@H]1CC[C@H]2n3c(nnc3-c3ccccc3)CCC[C@]12C (stereo partly specified)	26.3 µM
CCCCCCCCCCCCCCCCP(=O)(O)OCC(N)C(=O)O (stereo unspecified)	91.3 µM
C1=C(CC2=C[P+](c3ccccc3)(c3ccccc3)C=C(c3ccccc3)O2)OC(c2ccccc2)=C[P+]1(c1ccccc1)c1ccccc1	0.538 µM

tested on: OVCAR-8 ovarian; assay: NCI-60 cell line screen, 48 h

SMILES	TGI
CCOc1cccc(C=Nc2ccccc2SSc2ccccc2N=Cc2cccc(OCC)c2O)c1O	8.33 µM
Cc1c2c(cc3c1C(=O)C(=O)C([C@@H](C)CO)=C3O)C(C)(C)CCC2	> 100 µM
CC[C@@]1(O)C(=O)OCc2c1cc1n(c2=O)Cc2c-1nc1ccccc1c2/C=N\NC(=O)C[n+]1ccccc1	> 68.7 µM
Cc1[nH]c(=O)[nH]c(=O)c1/C=C/C(=O)NC(CO)CC(C)C (stereo unspecified)	> 237 µM
COc1ccc(CC2Cc3ccccc3CCN2)cc1OC (stereo unspecified)	> 50 µM
CN(C)CCn1c(=O)c2ccc(NCCNCCO)c3c(=O)c4ccccc4n(c1=O)c23	5.64 µM
CN(CCC(=O)N1CC(CCl)c2ccc([N+](=O)[O-])cc21)CCC(=O)N1CC(CCl)c2ccc([N+](=O)[O-])cc21 (stereo unspecified)	37.6 µM
O=C1Cc2c([nH]c3ccc(Br)cc23)-c2cc(Br)ccc2N1	> 100 µM
O=C1CC(Br)c2c(Br)sc(Br)c21 (stereo unspecified)	29.6 µM
[O-][n+]1nc(N2CCOCC2)nc2ccccc21	> 100 µM
COc1ccc(NC(=S)Nc2cc(C)ccn2)cc1	> 100 µM
N=C1C(=N)c2ccccc2-c2ccccc21.[Cl-].[Ru+2].c1cnc2c(c1)ccc1cccnc12.c1cnc2c(c1)ccc1cccnc12	95.6 µM
NCc1ccc(-c2ccc(CN)s2)s1	> 100 µM
Cc1cccc(N/C(=C(/C(Cl)=C(Cl)Cl)[N+](=O)[O-])n2nnc3ccccc32)c1	31.1 µM
CCC1CN2CCc3cc(OC)c(OC)cc3C2CC1CC1c2cc(OC)c(OC)cc2CCN1C(=O)C(N)Cc1ccccc1 (stereo unspecified)	11.1 µM
